US20230373989A1, “N-PHENYLAMINOCARBONYL PYRIDINO-, PYRIMIDINO AND BENZO-TROPANES AS MODULATORS OF GPR65” (PATHIOS THERAPEUTICS LIMITED, priority 2020, published 2023)

target: T1, human recombinant GPR65 (Homo sapiens, UniProt Q8IYL9); assay: Human GPR65 cAMP HTRF antagonist assay; format: cell-based; details: not given
T1 construct: host or cells: 1321N1 human astrocytoma cells (1321N1-hrGPR65)
Outline: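 1321N1 astrocytoma cells stably expressing GPR65 were preincubated with compound for 30 min at room temperature in KRH pH 7.6 with 1 mM IBMX and 200 μM EDTA. They were then stimulated at assay pH 7.2 for 30 min, with controls at pH 7.9. cAMP was read by HTRF (665/620 nm), normalised to controls and fitted by 4-parameter logistic to give IC50.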

T1 sequence (Q8IYL9 whole entry): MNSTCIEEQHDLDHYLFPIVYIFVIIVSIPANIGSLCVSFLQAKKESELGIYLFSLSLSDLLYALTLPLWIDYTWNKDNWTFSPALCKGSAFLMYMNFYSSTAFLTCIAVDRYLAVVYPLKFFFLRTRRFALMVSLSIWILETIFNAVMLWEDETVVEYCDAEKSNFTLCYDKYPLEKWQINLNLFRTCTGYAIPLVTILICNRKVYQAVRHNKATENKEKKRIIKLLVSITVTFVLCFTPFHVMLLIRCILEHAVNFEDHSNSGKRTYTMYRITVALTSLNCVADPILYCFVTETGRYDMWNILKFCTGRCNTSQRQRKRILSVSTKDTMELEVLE

SMILES | IC50
O=C(Nc1cc(Br)c(C(F)(F)F)cc1F)N1[C@H]2CC[C@@H]1c1ccnc(F)c1C2 [Compound 180, (5R,8S)-N-(5-Bromo-2-fluoro-4-(trifluoromethyl)phenyl)-1-fluoro-6,7,8,9-tetrahydro-5H-5,8-epiminocyclohepta[c]pyridine-10-carboxamide] | < 0.5 µM
O=C(Nc1cccc(-c2ccccc2)c1)N1[C@H]2CC[C@@H]1c1ccnc(F)c1C2 [Compound 184, (5R,8S)-N-([1,1′-Biphenyl]-3-yl)-1-fluoro-6,7,8,9-tetrahydro-5H-5,8-epiminocyclohepta[c]pyridine-10-carboxamide] | < 0.5 µM
O=C(Nc1ccc(Oc2ccccc2)cc1)N1[C@H]2CC[C@@H]1c1ccnc(F)c1C2 [Compound 185, (5R,8S)-1-Fluoro-N-(4-phenoxyphenyl)-6,7,8,9-tetrahydro-5H-5,8-epiminocyclohepta[c]pyridine-10-carboxamide] | < 0.5 µM
Cc1ncoc1-c1ccc(NC(=O)N2[C@H]3CC[C@@H]2c2ccnc(F)c2C3)cc1 [Compound 187, (5R,8S)-1-Fluoro-N-(4-(4-methyloxazol-5-yl)phenyl)-6,7,8,9-tetrahydro-5H-5,8-epiminocyclohepta[c]pyridine-10-carboxamide] | 0.5 to 5 µM
O=C(Nc1cc(Cl)c(Cl)cc1F)N1[C@H]2CC[C@@H]1c1c(F)cncc1C2 [Compound 190, (5R,8S)-N-(4,5-Dichloro-2-fluorophenyl)-4-fluoro-6,7,8,9-tetrahydro-5H-5,8-epiminocyclohepta[c]pyridine-10-carboxamide] | < 0.5 µM
O=C(Nc1ccc(-c2ccccc2)cc1)N1[C@H]2CC[C@@H]1c1c[nH]c(=O)cc1C2 [Compound 191, (6S,9R)-N-([1,1′-Biphenyl]-4-yl)-3-oxo-3,5,6,7,8,9-hexahydro-2H-6,9-epiminocyclohepta[c]pyridine-10-carboxamide] | < 0.5 µM
O=C(Nc1ccc(-c2ccccc2)cc1)N1[C@H]2CC[C@@H]1c1ccnc(F)c1C2 [Compound 192, (5R,8S)-N-([1,1′-Biphenyl]-4-yl)-1-fluoro-6,7,8,9-tetrahydro-5H-5,8-epiminocyclohepta[c]pyridine-10-carboxamide] | < 0.5 µM
O=C(Nc1cc(Cl)c(C(F)(F)F)cc1F)N1[C@H]2CC[C@@H]1c1ccc(F)nc1C2 [Compound 196, (5R,8S)-N-(5-Chloro-2-fluoro-4-(trifluoromethyl)phenyl)-2-fluoro-6,7,8,9-tetrahydro-5H-5,8-epiminocyclohepta[b]pyridine-10-carboxamide] | < 0.5 µM
O=C(Nc1cc(Cl)c(C(F)(F)F)cc1F)N1[C@@H]2CC[C@H]1c1ccc(F)nc1C2 [Compound 197, (5S,8R)-N-(5-Chloro-2-fluoro-4-(trifluoromethyl)phenyl)-2-fluoro-6,7,8,9-tetrahydro-5H-5,8-epiminocyclohepta[b]pyridine-10-carboxamide] | 0.5 to 5 µM
O=C(Nc1ccc(Cl)c(Cl)c1)N1[C@@H]2CC[C@H]1c1cnc(F)cc1C2 [Compound 198, (6R,9S)-N-(3,4-dichlorophenyl)-3-fluoro-6,7,8,9-tetrahydro-5H-6,9-epiminocyclohepta[c]pyridine-10-carboxamide] | 0.5 to 5 µM
N#Cc1cc(NC(=O)N2[C@H]3CC[C@@H]2c2ccnc(F)c2C3)ccc1Cl [Compound 199, (5R,8S)-N-(4-Chloro-3-cyanophenyl)-1-fluoro-6,7,8,9-tetrahydro-5H-5,8-epiminocyclohepta[c]pyridine-10-carboxamide] | < 0.5 µM

same assay, conditions: 1321N1-hrGPR65 cells, assay pH 7.2, cAMP HTRF; read-out: hGPR65 IC50 (activity class)

SMILES | IC50
O=C(Nc1ccc(-n2cccn2)cc1)N1[C@H]2CC[C@@H]1c1ccnc(F)c1C2 [Compound 183, (5R,8S)-N-(4-(1H-Pyrazol-1-yl)phenyl)-1-fluoro-6,7,8,9-tetrahydro-5H-5,8-epiminocyclohepta[c]pyridine-10-carboxamide] | 0.5 to 5 µM
O=C(Nc1ccc(-c2cscn2)cc1)N1[C@H]2CC[C@@H]1c1ccnc(F)c1C2 [Compound 186, (5R,8S)-1-Fluoro-N-(4-(thiazol-4-yl)phenyl)-6,7,8,9-tetrahydro-5H-5,8-epiminocyclohepta[c]pyridine-10-carboxamide] | 0.5 to 5 µM
O=C(Nc1ccc(-c2cnco2)cc1)N1[C@H]2CC[C@@H]1c1ccnc(F)c1C2 [Compound 188, (5R,8S)-1-Fluoro-N-(4-(oxazol-5-yl)phenyl)-6,7,8,9-tetrahydro-5H-5,8-epiminocyclohepta[c]pyridine-10-carboxamide] | 0.5 to 5 µM
O=C(Nc1cc(Cl)c(Cl)cc1F)N1[C@H]2CC[C@@H]1c1ccnc(C(F)(F)F)c1C2 [Compound 200, (5R,8S)-N-(4,5-dichloro-2-fluorophenyl)-1-(trifluoromethyl)-6,7,8,9-tetrahydro-5H-5,8-epiminocyclohepta[c]pyridine-10-carboxamide] | 0.5 to 5 µM
